Laboratory results from PubChem BioAssay AID1963844 (Molecular Pharmacology Branch, DTP, NCI, 2024).

Test system: 422866-222-R5-J1-PDC complex spheroid viability
Test: Anticancer human tumor 422866-222-R5-J1-PDC patient-derived pancreatic adenocarcinoma cell line growth inhibition [POLQ]
Settings: for IC50: curve of first compound; for viability, T/C: stronger effect = lower value
Procedure: Multicellular complex tumor spheroid response to Polymerase (POL) inhibitors (novobiocin, ART-558, RP6685) in combination with a variety of drugs and investigational agents in selected tumor cell lines
The POL inhibitors (novobiocin, ART-558, and RP6685) were evaluated both individually and in combination with standard of care and investigational anticancer small molecules within a complex spheroid model of solid tumors. . Complex spheroids include a stromal component modeled by human endothelial cells (HUVEC) and fibroblasts modeled by human mesenchymal stem cells (MSCs). The concentration ranges selected for each drug and investigational agent were based upon clinically achievable concentrations if the clinical Cmax of the agent was known.
Compounds. The drugs and investigational agents: novobiocin (NSC847541), ART-558 (NSC835418), RP-6685 (NSC848927), peposertib (NSC802822), ceralasertib (NSC780249), elimusertib (NSC800525), camonsertib (NSC841442), AZD-1390 (NSC803789), olaparib (NSC753686), talazoparib (NSC767125), rucaparib (NSC756644), sotorasib (NSC818433), MRTX-1133 (NSC836407), SN-38 (NSC673596), topotecan (NSC609699), epotoside (NSC141540), doxorubicin (NSC123127), gemcitabine (NSC613327), 5-fluorouracil (NSC19893), paclitaxel (NSC125973), vemurafenib (NSC761431), MSA-2 (NSC828583), SN-011 (NSC837082), adavosertib (NSC754352), prexasertib (NSC758257), carboplatin (NSC241240) and oxaliplatin (NSC266046), were obtained from the National Cancer Institute (NCI) Developmental Therapeutics Program Chemical Repository (21). The FDA-approved anticancer drug set is available from the Developmental Therapeutics Program at https://dtp.cancer.gov/organization/dscb/obtaining/. […] The stock solutions were prepared in dimethyl sulfoxide (DMSO, Sigma-Aldrich, St. Louis, MO, cat. D2650), except for the platinum compounds which were prepared in saline (Quality Biological, Gaithersburg, MD, cat. 114-055-101), at 800-fold the tested concentration and stored at -70 degrees C prior to their use. All drugs and investigational agents were tested over a range starting from a high concentration at or near the clinical Cmax and decreasing in half-log increments. If the clinical Cmax for an agent had not been determined, the highest concentration tested was 10 microM, except for SN-38, which was tested at a high concentration of 1 microM.
Cell Culture. All cells were maintained in an incubator at 37 degrees C and 5% CO2 with 95% humidity. The PDC lines were cultured according to standard operating procedures established by the NCI PDMR (https://pdmr.cancer.gov). Table 3 of the manuscript, lists the cell lines along with the number of the three cell types plated to form the mct-spheroids and media for tumor cell growth. After thawing, all PDC lines, except 997537-175-T-J1-PDC and 415267-285-R-J2-PDC, were cultured in Matrigel-coated flasks prepared with a working solution of 1X Ham's F-12 nutrient mix, without supplementation (Thermo Fisher Scientific, cat. 11765054), 100 U/mL penicillin-streptomycin (Thermo Fisher Scientific, cat. 15140122), and 2.5% Matrigel (Corning Inc., Corning, NY, cat. 354248) for the first three passages. The two PDC lines 997537-175-T-J1-PDC and 415267-285-R-J2-PDC were cultured on uncoated flasks. The 857933-349-R-J2-PDC line was cultured in 6C/Colon 1B media containing advanced DMEM/F-12 (Thermo Fisher Scientific, cat. 12634028), 10 mM HEPES (Thermo Fisher Scientific, cat. 15630080), 1X GlutaMAX supplement (Thermo Fisher Scientific, cat. 35050061), 0.1 mg/mL primocin (InvivoGen, San Diego, CA, cat. ant-pm-2), 10% defined fetal bovine serum, heat inactivated (HyClone Laboratories Inc., Logan, UT, cat. SH30070.03HI), 50% L-WRN conditioned media (ATCC, cat. CRL-3276), 1.25 mM N-Acetyl-L-cysteine (Sigma-Aldrich, cat. A9165), 10 mM nicotinamide (Sigma-Aldrich, cat. N0636), 1X B-27 supplement (Thermo Fisher Scientific, cat. 17504044), 1X N-2 supplement (Thermo Fisher Scientific, cat. […]

[1] = second compound 0.0316 µM, first compound 0.0316 µM
[2] = second compound 0.0316 µM, first compound 0.1 µM
[3] = second compound 0.0316 µM, first compound 0.316 µM
[4] = second compound 0.0316 µM, first compound 1 µM
[5] = second compound 0.1 µM, first compound 0.0316 µM
[6] = second compound 0.1 µM, first compound 0.1 µM
[7] = second compound 0.1 µM, first compound 0.316 µM
[8] = second compound 0.1 µM, first compound 1 µM
[9] = second compound 0.316 µM, first compound 0.0316 µM
[10] = second compound 0.316 µM, first compound 0.1 µM
[11] = second compound 0.316 µM, first compound 0.316 µM
[12] = second compound 0.316 µM, first compound 1 µM
[13] = second compound 1 µM, first compound 0.0316 µM
[14] = second compound 1 µM, first compound 0.1 µM
[15] = second compound 1 µM, first compound 0.316 µM
[16] = second compound 1 µM, first compound 1 µM
[17] = second compound 3.16 µM, first compound 0.0316 µM
[18] = second compound 3.16 µM, first compound 0.1 µM
[19] = second compound 3.16 µM, first compound 0.316 µM
[20] = second compound 3.16 µM, first compound 1 µM
[21] = second compound 10 µM, first compound 0.0316 µM
[22] = second compound 10 µM, first compound 0.1 µM
[23] = second compound 10 µM, first compound 0.316 µM
[24] = second compound 10 µM, first compound 1 µM
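Note: spheroids exposed to compounds for one week before readout.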
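Throughout, for viability, T/C: percent of DMSO vehicle wells luminescence so 100% = untreated viability.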

## CCc1c2c(nc3ccc(O)cc13)-c1cc3c(c(=O)n1C2)COC(=O)[C@]3(O)CC + Nc1ccc(C#CCN(C(=O)Cc2ncc(C(F)(F)F)cc2C(F)(F)F)c2ccc(F)cc2)nn1
Second compound 0.0316 µM
  IC50: < 0.00316 µM
Second compound 0.1 µM
  IC50: < 0.00316 µM
Second compound 0.316 µM
  IC50: < 0.00316 µM
Second compound 1 µM
  IC50: < 0.00316 µM
Second compound 3.16 µM
  IC50: < 0.00316 µM
Second compound 10 µM
  IC50: < 0.00316 µM
Second compound 0.0316 µM, first compound 0.00316 µM
  viability, T/C: 40%
Second compound 0.0316 µM, first compound 0.01 µM
  viability, T/C: 32.4%
[1]
  viability, T/C: 33.4%
[2]
  viability, T/C: 33%
[3]
  viability, T/C: 35%
[4]
  viability, T/C: 16.2%
Second compound 0.1 µM, first compound 0.00316 µM
  viability, T/C: 39.4%
Second compound 0.1 µM, first compound 0.01 µM
  viability, T/C: 37.8%
[5]
  viability, T/C: 35%
[6]
  viability, T/C: 32.4%
[7]
  viability, T/C: 32.8%
[8]
  viability, T/C: 20.6%
Second compound 0.316 µM, first compound 0.00316 µM
  viability, T/C: 35.8%
Second compound 0.316 µM, first compound 0.01 µM
  viability, T/C: 38%
[9]
  viability, T/C: 34.8%
[10]
  viability, T/C: 33.3%
[11]
  viability, T/C: 33%
[12]
  viability, T/C: 16.9%
Second compound 1 µM, first compound 0.00316 µM
  viability, T/C: 38.4%
Second compound 1 µM, first compound 0.01 µM
  viability, T/C: 32.3%
[13]
  viability, T/C: 32.7%
[14]
  viability, T/C: 31%
[15]
  viability, T/C: 30.5%
[16]
  viability, T/C: 21.7%
Second compound 3.16 µM, first compound 0.00316 µM
  viability, T/C: 36.2%
Second compound 3.16 µM, first compound 0.01 µM
  viability, T/C: 31.6%
[17]
  viability, T/C: 29.4%
[18]
  viability, T/C: 32.7%
[19]
  viability, T/C: 39.1%
[20]
  viability, T/C: 23.1%
Second compound 10 µM, first compound 0.00316 µM
  viability, T/C: 38.6%
Second compound 10 µM, first compound 0.01 µM
  viability, T/C: 35%
[21]
  viability, T/C: 36.9%
[22]
  viability, T/C: 28.7%
[23]
  viability, T/C: 31.2%
[24]
  viability, T/C: 18.6%

## CCc1cc2c(N3CCc4c(cc(Cn5ccnc5)cc4-c4cn(C)nc4C(F)(F)F)C3=O)cc(C)nc2c(OC)n1 + Nc1ccc(C#CCN(C(=O)Cc2ncc(C(F)(F)F)cc2C(F)(F)F)c2ccc(F)cc2)nn1
Second compound 0.0316 µM
  IC50: > 10 µM
Second compound 0.1 µM
  IC50: > 10 µM
Second compound 0.316 µM
  IC50: > 10 µM
Second compound 1 µM
  IC50: > 10 µM
Second compound 3.16 µM
  IC50: > 10 µM
Second compound 10 µM
  IC50: > 10 µM
[1]
  viability, T/C: 79.3%
[2]
  viability, T/C: 88.6%
[3]
  viability, T/C: 96%
[4]
  viability, T/C: 115%
Second compound 0.0316 µM, first compound 3.16 µM
  viability, T/C: 103%
Second compound 0.0316 µM, first compound 10 µM
  viability, T/C: 95.5%
[5]
  viability, T/C: 105%
[6]
  viability, T/C: 97.4%
[7]
  viability, T/C: 102%
[8]
  viability, T/C: 87.1%
Second compound 0.1 µM, first compound 3.16 µM
  viability, T/C: 98.7%
Second compound 0.1 µM, first compound 10 µM
  viability, T/C: 99.7%
[9]
  viability, T/C: 99.5%
[10]
  viability, T/C: 86.3%
[11]
  viability, T/C: 94.8%
[12]
  viability, T/C: 88.3%
Second compound 0.316 µM, first compound 3.16 µM
  viability, T/C: 118%
Second compound 0.316 µM, first compound 10 µM
  viability, T/C: 100%
[13]
  viability, T/C: 95.6%
[14]
  viability, T/C: 75%
[15]
  viability, T/C: 87.7%
[16]
  viability, T/C: 99.7%
Second compound 1 µM, first compound 3.16 µM
  viability, T/C: 94.9%
Second compound 1 µM, first compound 10 µM
  viability, T/C: 96.2%
[17]
  viability, T/C: 81.2%
[18]
  viability, T/C: 93.6%
[19]
  viability, T/C: 95.2%
[20]
  viability, T/C: 99.2%
Second compound 3.16 µM, first compound 3.16 µM
  viability, T/C: 122%
Second compound 3.16 µM, first compound 10 µM
  viability, T/C: 107%
[21]
  viability, T/C: 102%
[22]
  viability, T/C: 112%
[23]
  viability, T/C: 106%
[24]
  viability, T/C: 83.7%
Second compound 10 µM, first compound 3.16 µM
  viability, T/C: 102%
Second compound 10 µM, first compound 10 µM
  viability, T/C: 113%
